Laboratory results reported in PubChem BioAssay (NCI).
Values joined by “and” are separate entries in the source; they are usually repeats but may differ in a detail not shown here. Equal entries are not always repeated.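 How tested: cells in 96-well plates exposed to compound for 48 hours at five concentrations. Here, GI50 denotes the concentration required for 50% inhibition of growth. TGI: concentration producing complete growth inhibition.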

Assays:
Assay in all cases: inhibition of tumour cell growth, NCI panel, 48 h; in the data active = GI50 below about 0.43 µM; inactive = the rest
786-0 renal = test system: 786-0 renal
A498 renal = test system: A498 renal
A549 NSCLC = test system: A549 NSCLC
ACHN renal = test system: ACHN renal
CAKI-1 renal = test system: CAKI-1 renal
CCRF-CEM leukemia = test system: CCRF-CEM leukemia
COLO 205 colon = test system: COLO 205 colon
DU-145 prostate = test system: DU-145 prostate
HCC-2998 colon = test system: HCC-2998 colon
HCT-116 colon = test system: HCT-116 colon
HCT-15 colon = test system: HCT-15 colon
HL-60(TB) leukemia = test system: HL-60(TB) leukemia
HOP-92 NSCLC = test system: HOP-92 NSCLC
HS 578T breast = test system: HS 578T breast
HT29 colon = test system: HT29 colon
IGROV1 ovarian = test system: IGROV1 ovarian
K-562 leukemia = test system: K-562 leukemia
KM12 colon = test system: KM12 colon
LOX IMVI melanoma = test system: LOX IMVI melanoma
MALME-3M melanoma = test system: MALME-3M melanoma
MDA-MB-231 breast = test system: MDA-MB-231 breast
MDA-MB-435 = test system: MDA-MB-435
MDA-N = test system: MDA-N
NCI-H226 lung = test system: NCI-H226 lung
NCI-H23 lung = test system: NCI-H23 lung
NCI-H460 lung = test system: NCI-H460 lung
NCI-H522 lung = test system: NCI-H522 lung
NCI/ADR-RES ovarian = test system: NCI/ADR-RES ovarian
OVCAR-4 ovarian = test system: OVCAR-4 ovarian
OVCAR-8 ovarian = test system: OVCAR-8 ovarian
PC-3 prostate = test system: PC-3 prostate
RPMI-8226 leukemia = test system: RPMI-8226 leukemia
SF-268 CNS = test system: SF-268 CNS
SK-MEL-2 melanoma = test system: SK-MEL-2 melanoma
SK-MEL-28 melanoma = test system: SK-MEL-28 melanoma
SK-MEL-5 melanoma = test system: SK-MEL-5 melanoma
SN12C renal = test system: SN12C renal
SNB-19 CNS = test system: SNB-19 CNS
SNB-75 CNS = test system: SNB-75 CNS
SR leukemia = test system: SR leukemia
SW-620 colon = test system: SW-620 colon
T-47D breast = test system: T-47D breast
TK-10 renal = test system: TK-10 renal
U251 CNS = test system: U251 CNS
UACC-257 melanoma = test system: UACC-257 melanoma
UACC-62 melanoma = test system: UACC-62 melanoma
UO-31 renal = test system: UO-31 renal
EKVX NSCLC = test system: EKVX NSCLC
HOP-62 NSCLC = test system: HOP-62 NSCLC
MCF7 breast = test system: MCF7 breast
MOLT-4 leukemia = test system: MOLT-4 leukemia
OVCAR-3 ovarian = test system: OVCAR-3 ovarian
RXF 393 renal = test system: RXF 393 renal
SF-295 CNS = test system: SF-295 CNS
SF-539 CNS = test system: SF-539 CNS
SK-OV-3 ovarian = test system: SK-OV-3 ovarian
BT-549 breast = test system: BT-549 breast
M14 melanoma = test system: M14 melanoma
OVCAR-5 ovarian = test system: OVCAR-5 ovarian

N#Cc1c(=O)c2ccccc2n2ccccc12
90800 nM: TGI (SK-MEL-2 melanoma)
> 100000 nM: TGI (786-0 renal) | TGI (A498 renal) | TGI (A549 NSCLC) | TGI (ACHN renal) | TGI (CAKI-1 renal) | TGI (CCRF-CEM leukemia) | TGI (COLO 205 colon) | TGI (DU-145 prostate) | TGI (HCC-2998 colon) | TGI (HCT-116 colon) | TGI (HCT-15 colon) | TGI (HL-60(TB) leukemia) | TGI (HOP-92 NSCLC) | TGI (HS 578T breast) | TGI (HT29 colon) | TGI (IGROV1 ovarian) | TGI (K-562 leukemia) | TGI (KM12 colon) | TGI (LOX IMVI melanoma) | TGI (MALME-3M melanoma) | TGI (MDA-MB-231 breast) | TGI (MDA-MB-435) | TGI (MDA-N) | TGI (NCI-H226 lung) | TGI (NCI-H23 lung) | TGI (NCI-H460 lung) | TGI (NCI-H522 lung) | TGI (NCI/ADR-RES ovarian) | TGI (OVCAR-4 ovarian) | TGI (OVCAR-8 ovarian) | TGI (PC-3 prostate) | TGI (RPMI-8226 leukemia) | TGI (SF-268 CNS) | TGI (SK-MEL-28 melanoma) | TGI (SK-MEL-5 melanoma) | TGI (SN12C renal) | TGI (SNB-19 CNS) | TGI (SNB-75 CNS) | TGI (SR leukemia) | TGI (SW-620 colon) | TGI (T-47D breast) | TGI (TK-10 renal) | TGI (U251 CNS) | TGI (UACC-257 melanoma) | TGI (UACC-62 melanoma) | TGI (UO-31 renal)

C=C1C(=O)OC2C1CCC(C)C1(O)C=CC(=O)C21C (stereo unspecified)
9500 nM: TGI (HL-60(TB) leukemia)
> 10000 nM: TGI (786-0 renal) | TGI (A498 renal) | TGI (A549 NSCLC) | TGI (ACHN renal) | TGI (CCRF-CEM leukemia) | TGI (COLO 205 colon) | TGI (EKVX NSCLC) | TGI (HCC-2998 colon) | TGI (HCT-116 colon) | TGI (HCT-15 colon) | TGI (HOP-62 NSCLC) | TGI (HOP-92 NSCLC) | TGI (HS 578T breast) | TGI (HT29 colon) | TGI (IGROV1 ovarian) | TGI (K-562 leukemia) | TGI (KM12 colon) | TGI (LOX IMVI melanoma) | TGI (MALME-3M melanoma) | TGI (MCF7 breast) | TGI (MDA-MB-435) | TGI (MDA-N) | TGI (MOLT-4 leukemia) | TGI (NCI-H226 lung) | TGI (NCI-H23 lung) | TGI (NCI-H460 lung) | TGI (NCI/ADR-RES ovarian) | TGI (OVCAR-3 ovarian) | TGI (OVCAR-4 ovarian) | TGI (OVCAR-8 ovarian) | TGI (PC-3 prostate) | TGI (RPMI-8226 leukemia) | TGI (RXF 393 renal) | TGI (SF-268 CNS) | TGI (SF-295 CNS) | TGI (SF-539 CNS) | TGI (SK-MEL-2 melanoma) | TGI (SK-MEL-28 melanoma) | TGI (SK-MEL-5 melanoma) | TGI (SK-OV-3 ovarian) | TGI (SN12C renal) | TGI (SNB-19 CNS) | TGI (SNB-75 CNS) | TGI (SR leukemia) | TGI (SW-620 colon) | TGI (T-47D breast) | TGI (TK-10 renal) | TGI (U251 CNS) | TGI (UACC-62 melanoma) | TGI (UO-31 renal)

CCCCCCNCCCNc1c2cc(OC)ccc2nc2cccc([N+](=O)[O-])c12
398 nM: TGI (MCF7 breast)
413 nM and 1030 nM: TGI (SF-295 CNS)
2410 nM and 3650 nM: TGI (NCI/ADR-RES ovarian)
481 nM and 1020 nM: TGI (MDA-MB-231 breast)
560 nM and 1020 nM: TGI (PC-3 prostate)
338 nM and 1360 nM: TGI (DU-145 prostate)
418 nM and 1010 nM: TGI (SF-268 CNS)
474 nM and 2000 nM: TGI (SK-MEL-28 melanoma)
797 nM and 748 nM: TGI (CAKI-1 renal)
703 nM and 431 nM: TGI (UO-31 renal)
387 nM and 875 nM: TGI (TK-10 renal)
371 nM and 449 nM: TGI (HOP-62 NSCLC)
4940 nM and 961 nM: TGI (SK-OV-3 ovarian)
active: GI50 (ACHN renal) 159 nM | GI50 (CCRF-CEM leukemia) 118 nM | GI50 (COLO 205 colon) 143 nM | GI50 (DU-145 prostate) 162 nM | GI50 (HCT-116 colon) 38.4 nM | GI50 (HL-60(TB) leukemia) 155 nM | GI50 (HOP-62 NSCLC) 124 nM | GI50 (HT29 colon) 54.4 nM | GI50 (K-562 leukemia) 121 nM | GI50 (KM12 colon) 160 nM | GI50 (M14 melanoma) 143 nM | GI50 (MCF7 breast) 34.8 nM | GI50 (MDA-MB-435) 164 nM | GI50 (MOLT-4 leukemia) 51.4 nM | GI50 (NCI-H23 lung) 165 nM | GI50 (NCI-H460 lung) 33.7 nM | GI50 (NCI-H522 lung) 17.4 nM | GI50 (OVCAR-4 ovarian) 88.5 nM | GI50 (OVCAR-8 ovarian) 236 nM and 105 nM | GI50 (RPMI-8226 leukemia) 64.6 nM | GI50 (SF-295 CNS) 163 nM | GI50 (SK-MEL-2 melanoma) 48 nM | GI50 (SK-MEL-5 melanoma) 135 nM | GI50 (SN12C renal) 132 nM | GI50 (SR leukemia) 121 nM | GI50 (SW-620 colon) 132 nM | GI50 (U251 CNS) 40.7 nM
3600 nM and 462 nM: TGI (A498 renal)
865 nM and 420 nM: TGI (SNB-75 CNS)
14400 nM: TGI (HCT-15 colon)
297 nM and 1050 nM: TGI (OVCAR-3 ovarian)
346 nM and 238 nM: TGI (OVCAR-4 ovarian)
407 nM and 353 nM: TGI (HT29 colon)
199 nM and 422 nM: TGI (MALME-3M melanoma)
111 nM: TGI (RXF 393 renal)
534 nM and 655 nM: TGI (HOP-92 NSCLC)
2450 nM and 644 nM: TGI (OVCAR-8 ovarian)
2300 nM and 2270 nM: TGI (BT-549 breast)
489 nM and 352 nM: TGI (K-562 leukemia)
1470 nM and 786 nM: TGI (HS 578T breast)
368 nM and 724 nM: TGI (786-0 renal)
314 nM and 321 nM: TGI (MDA-MB-435)
508 nM and 472 nM: TGI (KM12 colon)
285 nM and 293 nM: TGI (M14 melanoma)
383 nM and 794 nM: TGI (OVCAR-5 ovarian)
931 nM and 2490 nM: TGI (T-47D breast)
421 nM and 343 nM: TGI (SN12C renal)
209 nM and 199 nM: TGI (SK-MEL-2 melanoma)
542 nM and 974 nM: TGI (LOX IMVI melanoma)
3860 nM and 1020 nM: TGI (SNB-19 CNS)
inactive: GI50 (786-0 renal) 205 nM | GI50 (A498 renal) 227 nM | GI50 (A549 NSCLC) 213 nM | GI50 (BT-549 breast) 1040 nM | GI50 (CAKI-1 renal) 240 nM | GI50 (EKVX NSCLC) 1350 nM | GI50 (HCT-15 colon) 212 nM | GI50 (HOP-92 NSCLC) 239 nM | GI50 (HS 578T breast) 242 nM | GI50 (IGROV1 ovarian) 223 nM | GI50 (LOX IMVI melanoma) 272 nM | GI50 (MALME-3M melanoma) 179 nM | GI50 (MDA-MB-231 breast) 247 nM | GI50 (NCI-H226 lung) 380 nM | GI50 (NCI/ADR-RES ovarian) 555 nM | GI50 (OVCAR-3 ovarian) 309 nM | GI50 (OVCAR-5 ovarian) 190 nM | GI50 (SF-268 CNS) 261 nM | GI50 (SF-539 CNS) 239 nM | GI50 (SK-MEL-28 melanoma) 305 nM | GI50 (SK-OV-3 ovarian) 266 nM | GI50 (SNB-19 CNS) 206 nM | GI50 (SNB-75 CNS) 183 nM | GI50 (T-47D breast) 350 nM | GI50 (TK-10 renal) 322 nM | GI50 (UACC-257 melanoma) 395 nM | GI50 (UACC-62 melanoma) 186 nM | GI50 (UO-31 renal) 187 nM
183 nM: TGI (NCI-H460 lung)
155 nM and 1010 nM: TGI (HCT-116 colon)
64.3 nM: TGI (HCC-2998 colon)
1180 nM and 616 nM: TGI (SF-539 CNS)
140 nM and 348 nM: TGI (RPMI-8226 leukemia)
1400 nM and 1470 nM: TGI (UACC-257 melanoma)
4190 nM and 1300 nM: TGI (SW-620 colon)
104 nM and 51.6 nM: TGI (NCI-H522 lung)
1540 nM and 535 nM: TGI (ACHN renal)
427 nM and 3320 nM: TGI (EKVX NSCLC)
296 nM and 351 nM: TGI (NCI-H23 lung)
393 nM and 1080 nM: TGI (A549 NSCLC)
648 nM: TGI (COLO 205 colon)
716 nM and 1410 nM: TGI (NCI-H226 lung)
289 nM and 538 nM: TGI (CCRF-CEM leukemia)
305 nM and 412 nM: TGI (UACC-62 melanoma)
2010 nM and 279 nM: TGI (SK-MEL-5 melanoma)
